Calls of active or inactive are those of the source. The rule behind the calls is not given here.
Experiments:
[1] = target: T1, Hepatocyte growth factor activator serine protease (Homo sapiens, UniProt Q04756); assay: Inhibition of recombinant N-terminal His-tagged HGFA (unknown origin) expressed in baculovirus-infected Sf9 cells incubated for 30 mins prior to cromogenic substrate addition by spectrophotometry
T1 sequence (Q04756 whole entry): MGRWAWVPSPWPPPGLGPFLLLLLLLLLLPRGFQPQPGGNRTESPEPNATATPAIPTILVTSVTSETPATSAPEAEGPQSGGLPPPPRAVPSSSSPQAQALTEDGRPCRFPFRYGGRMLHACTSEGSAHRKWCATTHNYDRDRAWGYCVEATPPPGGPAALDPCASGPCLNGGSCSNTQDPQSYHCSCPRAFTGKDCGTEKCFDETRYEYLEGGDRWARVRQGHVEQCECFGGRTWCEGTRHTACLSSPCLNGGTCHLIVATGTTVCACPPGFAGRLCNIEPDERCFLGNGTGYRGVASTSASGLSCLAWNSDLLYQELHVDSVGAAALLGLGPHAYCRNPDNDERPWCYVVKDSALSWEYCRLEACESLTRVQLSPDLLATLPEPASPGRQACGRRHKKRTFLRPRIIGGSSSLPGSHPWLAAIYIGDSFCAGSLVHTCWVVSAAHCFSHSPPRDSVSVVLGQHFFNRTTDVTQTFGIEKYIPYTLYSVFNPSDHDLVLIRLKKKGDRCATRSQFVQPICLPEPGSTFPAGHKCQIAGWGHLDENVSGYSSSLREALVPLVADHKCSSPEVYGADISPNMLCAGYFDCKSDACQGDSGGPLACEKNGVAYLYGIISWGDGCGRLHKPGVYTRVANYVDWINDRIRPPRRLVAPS

[2] = target: T2, Hepatocyte growth factor activator serine protease (Homo sapiens) (UniProt Q04756); assay: Inhibition of recombinant N-terminal His-tagged HGFA (unknown origin) expressed in baculovirus-infected Sf9 cells using Boc-QLR-AMC as substrate up to 20 uM incubated for 30 mins prior to substrate addition by fluorescence assay
T2 sequence (whole entry): T1 sequence (Q04756 whole entry)

Serine protease hepsin = Serine protease hepsin (Homo sapiens, UniProt P05981); assay: Inhibition of hepsin (unknown origin) using Boc-QAR-AMC as substrate after 30 mins prior to substrate addition by fluorescence assay
Serine protease hepsin, sequence (P05981 1-162 limits assumed): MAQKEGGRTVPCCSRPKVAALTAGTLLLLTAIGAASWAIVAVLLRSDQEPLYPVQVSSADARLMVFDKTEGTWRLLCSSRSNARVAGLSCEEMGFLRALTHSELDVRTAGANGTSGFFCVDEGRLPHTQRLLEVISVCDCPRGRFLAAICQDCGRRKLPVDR
Serine protease hepsin, sequence (P05981 163-417 limits assumed): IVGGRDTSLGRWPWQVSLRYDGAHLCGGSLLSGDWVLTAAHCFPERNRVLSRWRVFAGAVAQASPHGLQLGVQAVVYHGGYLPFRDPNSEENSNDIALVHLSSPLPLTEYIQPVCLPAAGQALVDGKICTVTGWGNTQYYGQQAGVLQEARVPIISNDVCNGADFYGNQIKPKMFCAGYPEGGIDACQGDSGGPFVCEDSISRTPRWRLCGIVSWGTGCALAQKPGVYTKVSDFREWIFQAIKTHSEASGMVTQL

[3] = target: T3, Suppressor of tumorigenicity 14 protein (Homo sapiens, UniProt Q9Y5Y6); assay: Inhibition of matripase (unknown origin) using Boc-QAR-AMC as substrate incubated for 30 mins prior to substrate addition by fluorescence assay
T3 sequence (Q9Y5Y6 whole entry): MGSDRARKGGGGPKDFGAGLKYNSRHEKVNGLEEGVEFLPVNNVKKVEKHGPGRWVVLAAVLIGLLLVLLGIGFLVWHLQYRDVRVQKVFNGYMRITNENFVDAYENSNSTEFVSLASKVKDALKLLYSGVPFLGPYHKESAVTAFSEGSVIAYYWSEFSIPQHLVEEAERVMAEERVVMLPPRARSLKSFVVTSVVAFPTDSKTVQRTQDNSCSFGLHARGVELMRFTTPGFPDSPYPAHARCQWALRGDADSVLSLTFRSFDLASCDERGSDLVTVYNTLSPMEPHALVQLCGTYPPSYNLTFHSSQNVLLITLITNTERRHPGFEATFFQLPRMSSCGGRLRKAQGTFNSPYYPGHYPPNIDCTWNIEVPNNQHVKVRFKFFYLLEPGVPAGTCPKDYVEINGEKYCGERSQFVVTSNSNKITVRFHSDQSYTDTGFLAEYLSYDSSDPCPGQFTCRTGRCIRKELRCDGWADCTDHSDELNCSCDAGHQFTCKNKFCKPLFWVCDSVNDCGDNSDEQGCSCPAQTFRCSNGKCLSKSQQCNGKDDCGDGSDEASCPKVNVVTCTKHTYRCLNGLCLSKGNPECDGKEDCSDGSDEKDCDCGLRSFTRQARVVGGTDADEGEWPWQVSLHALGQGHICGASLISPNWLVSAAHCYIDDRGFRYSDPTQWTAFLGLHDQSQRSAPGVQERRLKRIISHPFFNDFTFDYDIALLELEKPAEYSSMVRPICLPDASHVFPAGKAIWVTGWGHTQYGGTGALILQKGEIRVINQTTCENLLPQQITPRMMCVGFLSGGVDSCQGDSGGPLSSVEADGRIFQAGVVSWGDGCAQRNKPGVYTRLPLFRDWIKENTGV

[4] = target: T1, Hepatocyte growth factor activator serine protease; assay: Inhibition of HGFA (unknown origin) after 40 mins by Eadie-Hofstee plot analysis
[5] = target: T1, Hepatocyte growth factor activator serine protease; assay: Inhibition of recombinant N-terminal His-tagged HGFA (unknown origin) expressed in baculovirus-infected Sf9 cells using Boc-QLR-AMC as substrate incubated for 30 mins prior to substrate addition by fluorescence assay

Row | Compound | IC50 [1] | Ki (Serine protease hepsin) | Ki [3] | also measured
1 | N=C(N)c1ccc2cc(OC(=O)c3ccc(N=C(N)N)cc3)ccc2c1 [NAFAMOSTAT] | 0.15 µM | – | – | –
2 | Cc1ccc(S(=O)(=O)N[C@@H](CCCCN)C(=O)CCl)cc1 | – | – | – | inhibition [2]: inactive
3 | N=C(N)Nc1ccc(C(=O)Nc2ccccc2)cc1 | > 50 µM | – | – | –
4 | CCCCCCNC(=O)N1CCN(C(=O)[C@H](Cc2cccc(C(=N)N)c2)NS(=O)(=O)c2ccc3ccccc3c2)CC1 | – | 1.2 µM | – | –
5 | COC(=O)c1ccc2cc(OC(=O)c3ccc(NC(=N)N)cc3)ccc2c1 | 0.6 µM | – | – | –
6 | COC(=O)c1ccc2cc(NS(=O)(=O)c3ccc(NC(=N)N)cc3)ccc2c1 | > 50 µM | – | – | –
7 | COC(=O)c1ccc(OC(=O)c2ccc(NC(=N)N)cc2)cc1 | 1.1 µM | – | – | –
8 | Cc1ccc(S(=O)(=O)Nc2ccc(NC(=N)N)cc2)cc1 | > 50 µM | – | – | –
9 | Cc1ccc(S(=O)(=O)N[C@@H](Cc2cccc(C(=N)N)c2)C(=O)N2CCC(c3ccccc3)CC2)cc1 | – | 4.7 µM | 0.48 µM | –
10 | [H]/N=C(/N)c1ccc(NCc2nc3cc(C(=O)N(CCC(=O)O)c4ccccn4)ccc3n2C)cc1 [DABIGATRAN] | – | 0.835 µM | – | –
11 | N=C(N)Nc1ccc(C(=O)Oc2ccc([N+](=O)[O-])cc2Cl)cc1 | 0.3 µM | – | – | –
12 | N=C(N)Nc1ccc(NC(=O)c2ccccc2)cc1 | > 50 µM | – | – | –
13 | N=C(N)c1cccc(C[C@H](NS(=O)(=O)c2ccc3ccccc3c2)C(=O)N2CCN(C(=O)NCc3ccc(Br)cc3)CC2)c1 | – | – | 4.6 µM | –
14 | CCc1cc([C@@H](Nc2ccc(C(=N)N)cc2)C(=O)NS(=O)(=O)c2cn(C)cn2)cc2c(C)coc12 | – | – | – | Ki [4]: 0.59 µM
15 | N=C(N)Nc1ccc(C(=O)Oc2ccc([N+](=O)[O-])cc2)cc1 | 0.82 µM | – | – | –
16 | N=C(N)c1cccc(C[C@H](NS(=O)(=O)c2ccc3ccccc3c2)C(=O)N2CCN(C(=O)NCc3ccccc3)CC2)c1 | – | – | 2.6 µM | –
17 | N=C(N)Nc1ccc(C(=O)Oc2cccc([N+](=O)[O-])c2)cc1 | 3 µM | – | – | –
18 | Cc1ccc(S(=O)(=O)N[C@@H](Cc2cccc(C(=N)N)c2)C(=O)N2CCN(C(=O)NCCc3ccccc3)CC2)cc1 | – | 0.67 µM | 2.5 µM | Ki [5]: > 50 µM
19 | CN(C)C(=O)COC(=O)Cc1ccc(OC(=O)c2ccc(NC(=N)N)cc2)cc1 [CAMOSTAT] | 32 µM | – | – | –
20 | CC(C)c1cc(C(C)C)c(S(=O)(=O)N[C@@H](Cc2cccc(C(=N)N)c2)C(=O)N2CCN(C(=O)C3CCNCC3)CC2)c(C(C)C)c1 | – | 7.4 µM | – | Ki [5]: 5.5 µM
21 | N=C(N)c1cccc(C[C@H](NS(=O)(=O)c2ccc3ccccc3c2)C(=O)N2CCN(C(=O)c3csc4ccccc34)CC2)c1 | – | 3.5 µM | 1.5 µM | –
22 | CCc1cc(C(Nc2ccc(C(=N)N)cc2)C(=O)NS(=O)(=O)c2cn(C)cn2)cc2c(C)coc12 (racemic) | – | 0.553 µM | 7.18 µM | Ki [5]: 7.1 µM
23 | Cc1ccc(S(=O)(=O)N[C@@H](Cc2cccc(C(=N)N)c2)C(=O)N2CCC[C@H](NC(=O)OCc3ccccc3)C2)cc1 | – | – | 1.2 µM | –
24 | O=C(NC[C@H]1CN(c2ccc(N3CCOCC3=O)cc2)C(=O)O1)c1ccc(Cl)s1 [RIVAROXABAN] | – | – | 3.35 µM | –
25 | CC(C)c1cc(C(C)C)c(S(=O)(=O)N[C@@H](Cc2cccc(C(=N)N)c2)C(=O)N2CCN(C(=O)C3CCN(C(=N)N)CC3)CC2)c(C(C)C)c1 | – | 1.58 µM | 0.0043 µM | Ki [5]: 17 µM
26 | N=C(N)c1cccc(C[C@H](NS(=O)(=O)c2ccc3ccccc3c2)C(=O)N2CCC[C@@H](NC(=O)OCc3ccccc3)C2)c1 | – | 2.6 µM | 6.7 µM | –
27 | N=C(N)Nc1ccc(C(=O)Oc2ccc(C(N)=O)cc2)cc1 | 6.8 µM | – | – | –

— ChEMBL document CHEMBL3400148, “Structure-based discovery of small molecule hepsin and HGFA protease inhibitors: Evaluation of potency and selectivity derived from distinct binding pockets” (Bioorg Med Chem, 2015)
